Here are results for 1 molecule from patent US20230212517A1, “METHODS FOR GENERATING HEMATOPOIETIC STEM CELLS” (The Brigham and Women's Hospital, Inc., priority 2018, published 2023).

SMILES strings stand for the structures.

In one assay the test system is E11.5 AGM cells. The assay can be described thus: RNA-sequencing / whole transcriptome analyses of treated E11.5 AGM cells. It is filed as cell-based, mouse. To be noted: Venn comparison of up-regulated genes, endothelial-to-HSC transition. The method, then: RNA-sequencing analyses were performed to measure gene expression patterns in mouse AGM treated with cyclic strain or pharmacological modulators. Using computational algorithms, hierarchical clustering was performed of differentially expressed genes as well as measured their overrepresented biological processes and pathways. Gene expression clusters of differentially expressed genes were analyzed and their mean expression level across cell populations compared. Next, Venn comparison of up- and down-genes was constructed to analyze candidate(s) important for cyclic strain- or pharmacological modulator(s)-mediated the endothelial-to-HSC transition. Furthermore, Dnmt3b and Dnmt3a protein expressions were analyzed in nuclear fractions of mouse AGM cells using EPIQUIK methyltransferase assay kits. Data are presented as mean±s.d. unless otherwise noted. Statistical analyses were performed by paired or un-paired Student's t-tests. […]
Total RNA from E11.5 mouse AGM explant cultures was isolated (control, stretch, Yoda1 and 4αPDD conditions) with the RNAEASY MiniKit (QIAGEN). […] We mapped our sequenced read fragments to the mouse reference genome GRCm38 (ENSEMBL release 69) using the Genomic Short-Read Nucleotide Alignment program (version 2012 Jul. 20). […] Gene expression clusters of differentially expressed genes were analyzed and their mean expression level across cell populations compared. […]

In assay [1] the test system is cd41:eGFP+ HSCs emerging from flk1:mCherry+ endothelial cells. Description: Time-lapse confocal imaging of cd41:eGFP+ HSCs emerging from flk1:mCherry+ endothelial cells in transgenic embryos. The assay is classed as in vivo, zebrafish. To be noted: 26-42 hpf. The procedure: Mice were purchased Cd45.2 (C57BL6/J) and Cd45.1 (SJL) from The Jackson Laboratory and zebrafish morpholinos from GeneTools. Microangiography was performed by injecting fluorescent-labeled dextran dye in the atrium of zebrafish heart and its passage was recorded using live imaging. Immunostaining of zebrafish heart and mouse AGM were analyzed using an inverted fluorescent microscope. Cardiac tamponade, heart rate, and pulse frequency were analyzed in zebrafish embryos using bright field imaging or time-lapse confocal microscopy. The movement of red blood cells in blood vessels was analyzed as well as the endothelial-to-HSC transition in zebrafish transgenic embryos using time-lapse confocal imaging.
Zebrafish embryos were treated with the following chemical modulators in E3 fish media: 100 uM L-NAME (Fisher Scientific), 50 uM Digitoxigenin (Sigma), 25-50 uM Yoda1 (Cayman Chemical), 1 uM Nanaomycin (Nana; Fisher Scientific), 100 uM Gadolinium chloride (GdCl3; Sigma), 5-10 uM 4α-phorbol 12, 13-didecanaote (4Apdd; Sigma), or GSK205 (10 uM).
cd41: eGFP were crossed with flk1:mCherry zebrafish and flk1:mCherry with lcr:eGFP zebrafish and injected morpholino in their transgenic embryos. Transgenic embryos were mounted in low-melting-point agarose and a spinning-disk confocal microscope was used to perform time-lapse confocal imaging of cd41:eGFP^+ HSCs emerging from flk1^+ endothelium from 30 to 42 hpf. The relative movement of lcr:eGFP^+ red blood cells was analyzed in the context of flk1:mCherry^+ endothelium. We performed image analysis using IMARIS (Bitplane) software.

The test system of assay [2] is human iPSC-derived HE cells. Description: Endothelial-to-hematopoietic transition in human iPSC-derived HE cells (FACS, CD34/CD45). As to conditions: Yoda1 between 6.25 and 100 μM. The assay is classed as cell-based. The procedure: Embryoid body and hemogenic endothelium differentiation was performed as described in (Sugimura et al. 2017; Ditadi et al. 2015). Briefly, hiPSC colonies were dissociated with 0.05% trypsin for 5 min at 37° C., washed with PBS+2% FBS, and resuspended in STEMPRO-34 medium (Invitrogen, 10639-011) supplemented with L-glutamine (2 mM), penicillin/streptomycin (10 ng/ml), ascorbic acid (1 mM), human holo-Transferrin (150 μg/ml, Sigma T0665), monothioglycerol (MTG, 0.4 mM), BMP4 (10 ng/ml), and Y-27632 (10 μM). Five million cells were seeded into 10 cm dishes (Ezsphere, Asahi Glass) for the spheroid formation. On Day 1, bFGF (5 ng/ml) and BMP4 (10 ng/ml) was added to the medium. On Day 2, the media was changed with the STEMPRO-34 supplemented with SB431542 (6 μM), CHIR99021 (3 μM), bFGF (5 ng/ml), and BMP4 (10 ng/ml). On Day 3, the medium was replaced with STEMPRO-34 supplemented with VEGF (15 ng/ml) and bFGF (10 ng/ml). On day 6, the medium was changed to STEMPRO-34 supplemented with bFGF (5 ng/ml), VEGF (15 ng/ml), interleukin (IL)-6 (10 ng/ml), IGF-1 (25 ng/ml), IL-11 (5 ng/ml), SCF (50 ng/ml) and EPO (2IU). The cells were maintained in a 5% CO2, 5% O2 and 95% humidity incubator. […]

Consider `Clc1cccc(Cl)c1CSc1nnc(-c2cnccn2)s1` [Yoda1, 2-[5-[[(2,6-Dichlorophenyl)methyl]thio]-1,3,4-thiadiazol-2-yl]-pyrazine], for which, in the assay with E11.5 AGM cells, the Dnmt3b transcript expression entry is recorded as “specifically stimulate” and the Gimap6 transcript expression result was “specifically stimulate”. Also, in assay [1] (control embryos), the “HSC formation (endothelial-to-HSC transition)” value is reported as “stimulates HSC formation”. The “HSC formation (endothelial-to-HSC transition)” value in assay [1] (sih-MO embryos) is on record as “rescues HSC formation”. The “dose dependence of the endothelial-to-hematopoietic transition” value in assay [2] is “dose dependent”. Moreover, in assay [2] (7 days, data not shown), the endothelial-to-hematopoietic transition entry is on record as “induced the endothelial-to-hematopoietic transition”.
